From ChEMBL document CHEMBL1143510, “Synthesis and in vitro antitumor activity of 4(3H)-quinazolinone derivatives with dithiocarbamate side chains” (Bioorg Med Chem Lett, 2005) come the findings set out here.

The test system of the assay is K562. Put plainly: In vitro cytotoxic concentration measured against human myelogenous leukemia K562 cells. Format: functional, cell-based.

Regarding `Cc1nc(O)c2cc(CSC(=S)N3CCN(c4ccc(F)cc4)CC3)ccc2n1`, 0.5 µM corresponded to half-maximal inhibition (IC50).
Under `Cc1nc(O)c2cc(CS/C(S)=N/Cc3ccco3)ccc2n1` stands 2.1 µM.
Under `CCOC(=O)C1CSCN1C(=S)SCc1ccc2nc(C)nc(O)c2c1` (centres undefined) stands 11 µM; under `CCN(CC)C(=S)SCc1ccc2nc(C)nc(O)c2c1`, 4.4 µM.
Take `Cc1nc(O)c2cc(CSC(=S)N(C3CCCCC3)C3CCCCC3)ccc2n1`: the IC50 – broadly, the point on the concentration scale where inhibition reaches its midpoint – is 7.6 µM.
Under `Cc1nc(O)c2cc(CSC(=S)N3CCN(C)CC3)ccc2n1` stands 10.8 µM; under `Cc1nc(O)c2cc(CSC(=S)N3CCN(Cc4ccccc4)CC3)ccc2n1`, 7.4 µM.
`Cc1nc(O)c2cc(CSC(=S)N3CCN(C(c4ccc(F)cc4)c4ccc(F)cc4)CC3)ccc2n1` showed an IC50 of 4.3 µM.
Under `CCOC(=O)C1(c2ccccc2)CCN(C(=S)SCc2ccc3nc(C)nc(O)c3c2)CC1` stands 8.7 µM; under `Cc1nc(O)c2cc(CSC(=S)N3CC(C)OC(C)C3)ccc2n1` (centres undefined), 3.7 µM; under `CSC(=S)NCc1c[nH]c2ccccc12` [BRASSININ], 128 µM.
In the case of `Cc1nc(O)c2cc(CS/C(S)=N/CCCN(C)C)ccc2n1`, it took 25.6 µM to reach half-maximal inhibition (IC50).
Under `CN(Cc1cnc2nc(N)nc(N)c2n1)c1ccc(C(=O)N[C@@H](CCC(=O)O)C(=O)O)cc1` [METHOTREXATE] stands 419 µM; under `Cc1nc(O)c2cc(CSC(=S)N3CCOCC3)ccc2n1`, 7.2 µM.
As to `Cc1nc(O)c2cc(CS/C(S)=N/Cc3ccccc3)ccc2n1`, the IC50 was determined as 4 µM.
Under `Cc1nc(O)c2cc(CSC(=S)N3CCCCC3)ccc2n1` stands 11.3 µM.
Under `Cc1nc(O)c2cc(CS/C(S)=N/C34CC5CC(CC(C5)C3)C4)ccc2n1` stands 30.6 µM; under `Cc1nc(O)c2cc(CS/C(S)=N/C3CCCCC3)ccc2n1`, 31 µM.
Under `Cc1nc(O)c2cc(CSC(=S)N3CCc4ccccc4C3)ccc2n1` stands 3.3 µM.
